Source: US20080119452A1, “METHODS FOR ENHANCING COGNITIVE FUNCTION” (priority 2006, published 2008)
Like-named read-outs stand apart in the source and are kept apart here.

Columns and labels:
rats = experiment: Object recognition task (time spent on novel vs familiar object); format: in vivo, rat
Source text: Effect of Compounds in Object Recognition Task
Spending more time on the novel than on the familiar object indicates memory for the latter. Vehicle-treated rats spent a mean of 63% of time on the novel object. The means for all of the doses of test articles were numerically higher with values of: 70 and 78% for galantamine, 71 and 75% for a first representative compound of formula IV, and 73 and 81% for a second representative compound of formula IV.
Ennaceur A and Delacour J (1988) A new one-trial test for neurobiological studies of memory in rats. 1: Behavioral data. Behav Brain Res 31: 47-59.

mouse = conditions: sub-optimal analgesic dose, cited from earlier work

With `COc1ccc2c3c1O[C@H]1C[C@@H](O)C=C[C@@]31CCN(C)C2` [Galantamine, galantamine] the “% Time Novel Object (Mean ± SEM)” value (rats; 0.3 mg/kg p.o., 0.3 mg/kg) was 70 ± 6%, the “% Time Novel Object (Mean ± SEM)” value (rats; 0.3 mg/kg p.o., listed as galantamine, 0.3 mg/kg) was 70% and the “% Time Novel Object (Mean ± SEM)” value (rats; 1.7 mg/kg p.o., 1.7 mg/kg) was 78 ± 5 %. For the same compound, the “% Time Novel Object (Mean ± SEM)” value (rats; 1.7 mg/kg p.o., listed as galantamine, 1.7 mg/kg) was 78%.
In the case of rubiscolin-6, the “effect on memory consolidation” value (mouse; 3 nmol/mouse i.c.v.) is listed as “enhance memory consolidation” and the “effect on memory consolidation” value (mouse; 100 mg/kg oral administration) is listed as “enhance memory consolidation”.
